Measurements as given in patent US20250290117A1, “MOLECULAR PHENOTYPIC ANTIMICROBIAL SUSCEPTIBILITY TESTING” (priority 2024, published 2025).

How the values were obtained:
[1] = test system: pathogens of clinical samples; assay: Molecular phenotypic antimicrobial susceptibility test of clinical samples, direct PCR without a separate DNA purification step (Table 6); type: cell-based
Method in brief: (§1)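 Specimens are first pre-incubated in medium, then diluted to 0.5 McFarland guided by optical density. They are exposed 12-16 h to antimicrobials at sensitivity breakpoints. Finally, either bead-based purification or lysis for direct PCR precedes semi-quantitative PCR.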

[2] = test system: E. coli; assay: Molecular phenotypic antimicrobial susceptibility test with direct PCR (no extraction DNA purification step); type: cell-based, Escherichia coli
[3] = test system: pathogens of clinical samples; assay: Molecular phenotypic antimicrobial susceptibility test of clinical samples, extraction DNA purification step prior to PCR (Table 6); type: cell-based
Method in brief: as §1

[4] = E. coli, clinical sample of r10-r24
[5] = E. coli, clinical sample of r10-r24, Ct control avg 12.97
[6] = E. coli, clinical sample of r158-r172
[7] = E. coli, clinical sample of r158-r172, Ct control avg 12.894
[8] = K. aerogenes, clinical sample of r136-r150
[9] = K. aerogenes, clinical sample of r136-r150, Ct control avg 13.854
[10] = K. pneumoniae, clinical sample of r121-r135
[11] = K. pneumoniae, clinical sample of r121-r135, Ct control avg […]
[12] = M. morganii, clinical sample of r55-r69
[13] = M. morganii, clinical sample of r55-r69, Ct control avg 12.09
[14] = M. morganii, clinical sample of r70-r84
[15] = M. morganii, clinical sample of r70-r84, Ct control avg 11.677
[16] = P. mirabilis, clinical sample of r25-r39
[17] = P. mirabilis, clinical sample of r25-r39, Ct control avg 11.801
[18] = P. mirabilis, clinical sample of r40-r54
[19] = P. mirabilis, clinical sample of r40-r54, Ct control avg 10.06
[20] = E. coli isolate JJ1887, direct PCR, Ct at control (average) 12.832
[21] = E. coli isolate JJ1887, direct PCR, at sensitive breakpoint
[22] = E. coli, clinical sample of r10-r24, Ct Control Avg 18.112
[23] = E. coli, clinical sample of r158-r172, Ct Control Avg 20.146
[24] = K. aerogenes, clinical sample of r136-r150, Ct Control Avg 19.994
[25] = K. pneumoniae, clinical sample of r121-r135, Ct Control Avg 24.272
[26] = M. morganii, clinical sample of r55-r69, Ct Control Avg 28.86
[27] = M. morganii, clinical sample of r70-r84, Ct Control Avg 27.053
[28] = P. mirabilis, clinical sample of r25-r39, Ct Control Avg 26.064
[29] = P. mirabilis, clinical sample of r40-r54, Ct Control Avg 26.987
[30] = S. aureus, clinical sample of r85-r92

With Ampicillin/Sulbactam the “Molecular Antibiotic Susceptibility Result” value [1, 4] was “Resistant”, the Ct [1, 5] was 13.482 and the “Molecular Antibiotic Susceptibility Result” value [1, 6] was “Sensitive (Antimicrobial wells with pathogen load detected below the control wells (typically >2 cycle thresholds later) may be reported as Sensitive)”. For the same substance, the Ct [1, 7] was 27.583, the “Molecular Antibiotic Susceptibility Result” value [1, 8] was “Sensitive (Antimicrobial wells with pathogen load detected below the control wells (typically >2 cycle thresholds later) may be reported as Sensitive)” and the Ct [1, 9] was 29.276. For the same substance, the “Molecular Antibiotic Susceptibility Result” value [1, 10] was “Resistant”, the Ct [1, 11] was 15.608 and the “Molecular Antibiotic Susceptibility Result” value [1, 12] was “Sensitive (Antimicrobial wells with pathogen load detected below the control wells (typically >2 cycle thresholds later) may be reported as Sensitive)”. For the same substance, the Ct [1, 13] was 26.942, the “Molecular Antibiotic Susceptibility Result” value [1, 14] was “Sensitive (Antimicrobial wells with pathogen load detected below the control wells (typically >2 cycle thresholds later) may be reported as Sensitive)” and the Ct [1, 15] was 32.39. The “Molecular Antibiotic Susceptibility Result” value [1, 16] was “Sensitive (Antimicrobial wells with pathogen load detected below the control wells (typically >2 cycle thresholds later) may be reported as Sensitive)”, the Ct [1, 17] was 28.121 and the “Molecular Antibiotic Susceptibility Result” value [1, 18] was “Sensitive (Antimicrobial wells with pathogen load detected below the control wells (typically >2 cycle thresholds later) may be reported as Sensitive)”. The Ct [1, 19] was 30.953, the “Ct at Sensitive Breakpoint” value [2, 20] was 12.693 and the “Molecular Antimicrobial Susceptibility Result” value [2, 21] was “Resistant”. For the same substance, the “Molecular Antibiotic Susceptibility Result” value [3, 4] was “Resistant”, the Ct [3, 22] was 17.123 and the “Molecular Antibiotic Susceptibility Result” value [3, 6] was “Sensitive (Antimicrobial wells with pathogen load detected below the control wells (typically >2 cycle thresholds later) may be reported as Sensitive)”. For the same substance, the Ct [3, 23] was 29.662, the “Molecular Antibiotic Susceptibility Result” value [3, 8] was “Sensitive (Antimicrobial wells with pathogen load detected below the control wells (typically >2 cycle thresholds later) may be reported as Sensitive)” and the Ct [3, 24] was 31.018. For the same substance, the “Molecular Antibiotic Susceptibility Result” value [3, 10] was “Resistant”, the Ct [3, 25] was 23.602 and the “Molecular Antibiotic Susceptibility Result” value [3, 12] was “Sensitive (Antimicrobial wells with pathogen load detected below the control wells (typically >2 cycle thresholds later) may be reported as Sensitive)”. The Ct [3, 26] was 37.093, the “Molecular Antibiotic Susceptibility Result” value [3, 14] was “Sensitive (Antimicrobial wells with pathogen load detected below the control wells (typically >2 cycle thresholds later) may be reported as Sensitive)” and the Ct [3, 27] was “Undet”. The “Molecular Antibiotic Susceptibility Result” value [3, 16] was “Sensitive (Antimicrobial wells with pathogen load detected below the control wells (typically >2 cycle thresholds later) may be reported as Sensitive)”, the Ct [3, 28] was 33.809 and the “Molecular Antibiotic Susceptibility Result” value [3, 18] was “Sensitive (Antimicrobial wells with pathogen load detected below the control wells (typically >2 cycle thresholds later) may be reported as Sensitive)”. The Ct [3, 29] was 36.062.

Gentamicin was tested, and the “Molecular Antibiotic Susceptibility Result” value [1, 4] was “Sensitive (Antimicrobial wells with pathogen load detected below the control wells (typically >2 cycle thresholds later) may be reported as Sensitive)”, the Ct [1, 5] was 23.559 and the “Molecular Antibiotic Susceptibility Result” value [1, 6] was “Sensitive (Antimicrobial wells with pathogen load detected below the control wells (typically >2 cycle thresholds later) may be reported as Sensitive)”. The Ct [1, 7] was 28.667, the “Molecular Antibiotic Susceptibility Result” value [1, 8] was “Sensitive (Antimicrobial wells with pathogen load detected below the control wells (typically >2 cycle thresholds later) may be reported as Sensitive)” and the Ct [1, 9] was 31.347. For the same substance, the “Molecular Antibiotic Susceptibility Result” value [1, 10] was “Sensitive (Antimicrobial wells with pathogen load detected below the control wells (typically >2 cycle thresholds later) may be reported as Sensitive)”, the Ct [1, 11] was 23.5 and the “Molecular Antibiotic Susceptibility Result” value [1, 12] was “Sensitive (Antimicrobial wells with pathogen load detected below the control wells (typically >2 cycle thresholds later) may be reported as Sensitive)”. The Ct [1, 13] was 32.648, the “Molecular Antibiotic Susceptibility Result” value [1, 14] was “Sensitive (Antimicrobial wells with pathogen load detected below the control wells (typically >2 cycle thresholds later) may be reported as Sensitive)” and the Ct [1, 15] was 30.206. For the same substance, the “Molecular Antibiotic Susceptibility Result” value [1, 16] was “Sensitive (Antimicrobial wells with pathogen load detected below the control wells (typically >2 cycle thresholds later) may be reported as Sensitive)”, the Ct [1, 17] was 22.67 and the “Molecular Antibiotic Susceptibility Result” value [1, 18] was “Sensitive (Antimicrobial wells with pathogen load detected below the control wells (typically >2 cycle thresholds later) may be reported as Sensitive)”. The Ct [1, 19] was 30.321, the “Molecular Antibiotic Susceptibility Result” value [1, 30] was “Sensitive (Antimicrobial wells with pathogen load detected below the control wells (typically >2 cycle thresholds later) may be reported as Sensitive)” and the Ct ([1]; S. aureus, clinical sample of r85-r92, Ct control avg 20.309) was 31.422. For the same substance, the “Molecular Antimicrobial Susceptibility Result” value ([2]; E. coli #1 - WDCM 00090 - 6.2×E3, specimen with <10,000 cells/mL, direct PCR after 16 hours of incubation) was “Sensitive (Antimicrobial wells with pathogen load detected below the control wells (typically >2 cycle thresholds later) may be reported as Sensitive)”, the “Ct at Sensitive Breakpoint” value ([2]; E. coli #1 - WDCM 00090 - 6.2×E3, specimen with <10,000 cells/mL, direct PCR after 16 hours of incubation, Ct at control 13.787) was 28.57 and the “Molecular Antimicrobial Susceptibility Result” value ([2]; E. coli #2 - WDCM 00090 - 6.2×E3, specimen with <10,000 cells/mL, direct PCR after 16 hours of incubation) was “Sensitive (Antimicrobial wells with pathogen load detected below the control wells (typically >2 cycle thresholds later) may be reported as Sensitive)”. The “Ct at Sensitive Breakpoint” value ([2]; E. coli #2 - WDCM 00090 - 6.2×E3, specimen with <10,000 cells/mL, direct PCR after 16 hours of incubation, Ct at control 13.46) was 28.70, the “Ct at Sensitive Breakpoint” value [2, 20] was 12.308 and the “Molecular Antimicrobial Susceptibility Result” value [2, 21] was “Resistant”. The “Molecular Antibiotic Susceptibility Result” value [3, 4] was “Sensitive (Antimicrobial wells with pathogen load detected below the control wells (typically >2 cycle thresholds later) may be reported as Sensitive)”, the Ct [3, 22] was 28.366 and the “Molecular Antibiotic Susceptibility Result” value [3, 6] was “Sensitive (Antimicrobial wells with pathogen load detected below the control wells (typically >2 cycle thresholds later) may be reported as Sensitive)”. For the same substance, the Ct [3, 23] was 32.759, the “Molecular Antibiotic Susceptibility Result” value [3, 8] was “Sensitive (Antimicrobial wells with pathogen load detected below the control wells (typically >2 cycle thresholds later) may be reported as Sensitive)” and the Ct [3, 24] was 36.1. For the same substance, the “Molecular Antibiotic Susceptibility Result” value [3, 10] was “Sensitive (Antimicrobial wells with pathogen load detected below the control wells (typically >2 cycle thresholds later) may be reported as Sensitive)”, the Ct [3, 25] was 44.195 and the “Molecular Antibiotic Susceptibility Result” value [3, 12] was “Sensitive (Antimicrobial wells with pathogen load detected below the control wells (typically >2 cycle thresholds later) may be reported as Sensitive)”. For the same substance, the Ct [3, 26] was “Undet”, the “Molecular Antibiotic Susceptibility Result” value [3, 14] was “Sensitive (Antimicrobial wells with pathogen load detected below the control wells (typically >2 cycle thresholds later) may be reported as Sensitive)” and the Ct [3, 27] was “Undet”. The “Molecular Antibiotic Susceptibility Result” value [3, 16] was “Sensitive (Antimicrobial wells with pathogen load detected below the control wells (typically >2 cycle thresholds later) may be reported as Sensitive)”, the Ct [3, 28] was 28.953 and the “Molecular Antibiotic Susceptibility Result” value [3, 18] was “Sensitive (Antimicrobial wells with pathogen load detected below the control wells (typically >2 cycle thresholds later) may be reported as Sensitive)”. The Ct [3, 29] was 37.234, the “Molecular Antibiotic Susceptibility Result” value [3, 30] was “Sensitive (Antimicrobial wells with pathogen load detected below the control wells (typically >2 cycle thresholds later) may be reported as Sensitive)” and the Ct ([3]; S. aureus, clinical sample of r85-r92, Ct Control Avg 24.32) was “Undet”.
